Experiments:
Assay type in all cases: cell-based, HEK293; call rule not given here
[1] = molecular target: T1, GABA-A receptor; alpha-3/beta-3/gamma-2 (Homo sapiens, UniProt P18507+P28472+P34903); assay: Displacement of [3H]flunitrazepam from human recombinant GABAA alpha-3-beta-3-gamma-2 receptor expressed in HEK cells by liquid scintillation counting
T1 sequence (P18507 whole entry): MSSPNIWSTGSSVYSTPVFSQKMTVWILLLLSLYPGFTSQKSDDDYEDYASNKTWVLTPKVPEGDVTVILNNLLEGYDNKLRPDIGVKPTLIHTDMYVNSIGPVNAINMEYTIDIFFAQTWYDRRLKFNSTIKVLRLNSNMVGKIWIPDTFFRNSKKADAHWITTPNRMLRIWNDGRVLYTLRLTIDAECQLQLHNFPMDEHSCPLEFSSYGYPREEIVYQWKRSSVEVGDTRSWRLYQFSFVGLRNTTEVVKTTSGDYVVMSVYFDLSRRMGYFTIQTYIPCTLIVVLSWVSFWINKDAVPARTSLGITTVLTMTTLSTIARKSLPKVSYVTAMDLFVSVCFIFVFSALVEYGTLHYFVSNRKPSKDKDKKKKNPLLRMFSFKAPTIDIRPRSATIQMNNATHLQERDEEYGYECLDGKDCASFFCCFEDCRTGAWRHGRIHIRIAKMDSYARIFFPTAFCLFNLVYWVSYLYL
T1 sequence (P28472 whole entry): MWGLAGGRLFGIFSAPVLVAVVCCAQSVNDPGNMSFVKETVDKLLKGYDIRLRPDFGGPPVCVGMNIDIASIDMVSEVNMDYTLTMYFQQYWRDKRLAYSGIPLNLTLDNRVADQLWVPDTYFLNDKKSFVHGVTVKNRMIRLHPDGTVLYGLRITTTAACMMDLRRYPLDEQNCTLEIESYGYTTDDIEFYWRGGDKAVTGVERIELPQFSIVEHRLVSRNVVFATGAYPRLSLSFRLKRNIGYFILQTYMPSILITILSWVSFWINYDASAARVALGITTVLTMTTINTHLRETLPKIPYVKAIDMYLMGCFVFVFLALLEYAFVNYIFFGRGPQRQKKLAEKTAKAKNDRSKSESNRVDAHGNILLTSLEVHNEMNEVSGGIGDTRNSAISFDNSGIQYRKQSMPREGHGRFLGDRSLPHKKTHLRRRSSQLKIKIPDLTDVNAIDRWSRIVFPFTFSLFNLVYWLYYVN
T1 sequence (P34903 whole entry): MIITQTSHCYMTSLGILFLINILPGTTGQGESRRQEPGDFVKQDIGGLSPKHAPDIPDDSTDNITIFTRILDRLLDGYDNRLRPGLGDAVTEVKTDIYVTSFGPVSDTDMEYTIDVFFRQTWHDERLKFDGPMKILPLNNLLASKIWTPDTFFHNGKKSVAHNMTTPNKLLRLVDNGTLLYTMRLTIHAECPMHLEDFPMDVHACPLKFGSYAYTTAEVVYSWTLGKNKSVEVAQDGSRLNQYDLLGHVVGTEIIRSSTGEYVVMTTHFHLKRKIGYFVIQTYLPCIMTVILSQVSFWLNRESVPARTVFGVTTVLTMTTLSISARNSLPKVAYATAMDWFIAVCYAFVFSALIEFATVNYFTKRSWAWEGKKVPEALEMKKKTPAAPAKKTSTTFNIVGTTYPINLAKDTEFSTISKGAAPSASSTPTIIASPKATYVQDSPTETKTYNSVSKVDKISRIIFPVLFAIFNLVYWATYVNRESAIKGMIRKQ

[2] = molecular target: T2, GABA-A receptor; alpha-1/beta-3/gamma-2 (Homo sapiens, UniProt P14867+P18507+P28472); assay: Displacement of [3H]flunitrazepam from human recombinant GABAA alpha-1-beta-3-gamma-2 receptor expressed in HEK cells by liquid scintillation counting
T2 sequence (P14867 whole entry): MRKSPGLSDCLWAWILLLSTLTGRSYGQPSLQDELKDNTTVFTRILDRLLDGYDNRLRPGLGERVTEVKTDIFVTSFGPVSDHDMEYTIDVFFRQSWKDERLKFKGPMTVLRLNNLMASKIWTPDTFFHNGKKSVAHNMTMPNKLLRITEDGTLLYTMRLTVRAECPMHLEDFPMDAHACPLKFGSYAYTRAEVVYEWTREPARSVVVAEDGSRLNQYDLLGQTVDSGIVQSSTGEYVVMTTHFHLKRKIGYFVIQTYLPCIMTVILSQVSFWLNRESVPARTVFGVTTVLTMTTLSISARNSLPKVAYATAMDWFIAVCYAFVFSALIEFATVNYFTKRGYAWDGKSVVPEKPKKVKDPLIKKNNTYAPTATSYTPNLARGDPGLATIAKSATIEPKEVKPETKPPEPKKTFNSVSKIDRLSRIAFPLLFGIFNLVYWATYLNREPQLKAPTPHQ
T2 sequence (P18507 whole entry): T1 sequence (P18507 whole entry)
T2 sequence (P28472 whole entry): T1 sequence (P28472 whole entry)

[3] = molecular target: T3, GABA-A receptor; alpha-2/beta-3/gamma-2 (Homo sapiens, UniProt P18507+P28472+P47869); assay: Displacement of [3H]flunitrazepam from human recombinant GABAA alpha-2-beta-3-gamma-2 receptor expressed in HEK cells by liquid scintillation counting
T3 sequence (P18507 whole entry): T1 sequence (P18507 whole entry)
T3 sequence (P28472 whole entry): T1 sequence (P28472 whole entry)
T3 sequence (P47869 whole entry): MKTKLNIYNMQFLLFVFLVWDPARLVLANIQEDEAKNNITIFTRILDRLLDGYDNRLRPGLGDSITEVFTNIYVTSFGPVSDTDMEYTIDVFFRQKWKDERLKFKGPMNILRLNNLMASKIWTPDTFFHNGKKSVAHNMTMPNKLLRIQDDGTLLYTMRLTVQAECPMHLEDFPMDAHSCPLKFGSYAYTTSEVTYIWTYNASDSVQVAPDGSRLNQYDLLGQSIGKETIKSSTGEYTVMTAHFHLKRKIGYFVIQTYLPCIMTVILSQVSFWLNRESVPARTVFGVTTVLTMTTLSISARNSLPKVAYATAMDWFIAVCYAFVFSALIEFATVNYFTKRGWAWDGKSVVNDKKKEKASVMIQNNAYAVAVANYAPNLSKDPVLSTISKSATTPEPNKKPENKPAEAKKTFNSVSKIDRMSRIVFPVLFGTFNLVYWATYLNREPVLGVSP

[4] = molecular target: T4, GABA-A receptor; alpha-5/beta-3/gamma-2 (Homo sapiens, UniProt P18507+P28472+P31644); assay: Displacement of [3H]flunitrazepam from human recombinant GABAA alpha-5-beta-3-gamma-2 receptor expressed in HEK cells by liquid scintillation counting
T4 sequence (P18507 whole entry): T1 sequence (P18507 whole entry)
T4 sequence (P28472 whole entry): T1 sequence (P28472 whole entry)
T4 sequence (P31644 whole entry): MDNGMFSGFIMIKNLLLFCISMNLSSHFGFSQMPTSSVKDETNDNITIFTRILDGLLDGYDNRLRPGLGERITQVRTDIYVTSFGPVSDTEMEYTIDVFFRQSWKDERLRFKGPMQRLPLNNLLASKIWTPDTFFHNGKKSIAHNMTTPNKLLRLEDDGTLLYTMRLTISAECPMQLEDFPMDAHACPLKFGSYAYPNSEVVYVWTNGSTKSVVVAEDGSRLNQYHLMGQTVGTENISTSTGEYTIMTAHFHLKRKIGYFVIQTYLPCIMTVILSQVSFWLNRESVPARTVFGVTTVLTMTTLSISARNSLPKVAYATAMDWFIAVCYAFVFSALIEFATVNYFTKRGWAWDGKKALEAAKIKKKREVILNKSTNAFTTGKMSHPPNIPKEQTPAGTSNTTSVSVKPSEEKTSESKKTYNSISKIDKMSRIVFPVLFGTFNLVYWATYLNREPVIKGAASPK

[5] = molecular target: GABA A receptor alpha-4/beta-3/gamma-2 (Homo sapiens, UniProt P18507+P28472+P48169); assay: Displacement of [3H]flunitrazepam from human recombinant GABAA alpha-4-beta-3-gamma-2 receptor expressed in HEK cells by liquid scintillation counting; conditions: hek293
Chain of GABA A receptor alpha-4/beta-3/gamma-2 (P48169 whole entry, one chain of several): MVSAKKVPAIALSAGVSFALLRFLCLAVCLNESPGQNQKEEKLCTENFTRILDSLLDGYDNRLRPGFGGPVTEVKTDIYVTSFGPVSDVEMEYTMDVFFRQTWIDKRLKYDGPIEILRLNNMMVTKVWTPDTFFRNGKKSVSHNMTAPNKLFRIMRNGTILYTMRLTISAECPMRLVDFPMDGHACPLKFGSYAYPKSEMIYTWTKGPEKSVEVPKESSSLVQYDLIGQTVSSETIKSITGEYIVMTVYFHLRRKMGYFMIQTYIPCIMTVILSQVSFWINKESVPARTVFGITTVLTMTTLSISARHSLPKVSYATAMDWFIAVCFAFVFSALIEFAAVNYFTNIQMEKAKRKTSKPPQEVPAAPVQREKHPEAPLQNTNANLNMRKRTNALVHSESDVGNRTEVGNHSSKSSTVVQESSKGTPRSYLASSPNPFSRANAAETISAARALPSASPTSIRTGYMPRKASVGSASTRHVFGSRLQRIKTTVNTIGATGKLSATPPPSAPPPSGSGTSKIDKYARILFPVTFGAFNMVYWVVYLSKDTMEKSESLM

[6] = molecular target: GABA-A receptor; alpha-6/beta-3/gamma-2 (Homo sapiens, UniProt P18507+P28472+Q16445); assay: Displacement of [3H]flunitrazepam from human recombinant GABAA alpha-6-beta-3-gamma-2 receptor expressed in HEK cells by liquid scintillation counting
Chain of GABA-A receptor; alpha-6/beta-3/gamma-2 (Q16445 whole entry, one chain of several): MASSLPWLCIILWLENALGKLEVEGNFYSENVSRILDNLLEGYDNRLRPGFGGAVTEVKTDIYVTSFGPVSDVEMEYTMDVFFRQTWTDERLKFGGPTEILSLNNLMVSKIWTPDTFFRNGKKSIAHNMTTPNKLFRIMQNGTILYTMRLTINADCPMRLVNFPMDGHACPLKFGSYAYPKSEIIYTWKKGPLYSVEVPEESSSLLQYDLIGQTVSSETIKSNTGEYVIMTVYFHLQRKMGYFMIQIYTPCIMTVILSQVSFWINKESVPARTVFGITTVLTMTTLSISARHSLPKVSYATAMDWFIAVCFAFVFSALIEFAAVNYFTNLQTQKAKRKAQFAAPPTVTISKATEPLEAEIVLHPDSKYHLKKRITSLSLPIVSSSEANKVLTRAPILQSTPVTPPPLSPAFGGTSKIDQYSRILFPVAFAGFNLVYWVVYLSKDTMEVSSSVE

Structure (SMILES) | Ki [1] | Ki [2] | Ki [3] | Ki [4] | Ki [5] | Ki [6]
O=C(OCC(F)(F)F)c1cc2c(cn1)[nH]c1ccc(-c3ccccc3)cc12 | 125 nM | 25 nM | 137 nM | 299 nM | – | –
C#Cc1ccc2[nH]c3cnc(C(=O)OCC(F)(F)F)cc3c2c1 | 42.7 nM | 4.5 nM | 44.6 nM | 124 nM | – | –
CC(C)(C)OC(=O)c1cc2c(cn1)[nH]c1ccc(-c3ccccc3)cc12 | 44.3 nM | 3.63 nM | 2.02 nM | 76.5 nM | Not Active | –
CC/C=C/C=C/Oc1cc2c(cn1)[nH]c1ccccc12 | 859 nM | 245 nM | 818 nM | – | – | –
CCOC(=O)c1cc2c(cn1)[nH]c1ccc(I)cc12 | 34 nM | 4.8 nM | 31 nM | 286 nM | – | –
CC(C)(C)OC(=O)c1cc2c(cn1)[nH]c1ccc(-c3ccco3)cc12 | 27.5 nM | 2.4 nM | 13 nM | 163 nM | Not Active | –
C#Cc1ccc2c(c1)c1cc(C(=O)OC(C)(C)C)ncc1n2C(=O)OC(C)(C)C | – | 450 nM | – | – | – | –
CCOC(=O)c1cc2c(cn1)[nH]c1ccc(C#C[Si](C)(C)C)cc12 | 5.58 nM | 4.4 nM | 4.5 nM | 47 nM | – | –
CC(OC(=O)c1cc2c(cn1)[nH]c1ccccc12)c1ccccc1 (stereo not drawn) | – | 33.5 nM | – | – | – | –
O=C(OC(C(F)(F)F)C(F)(F)F)c1cc2c(cn1)[nH]c1ccc(I)cc12 | 131 nM | 78 nM | 301 nM | 681 nM | – | –
O=C(OC(C(F)(F)F)C(F)(F)F)c1cc2c(cn1)[nH]c1ccccc12 | 32 nM | 3.99 nM | 8 nM | 461 nM | – | –
CC(C)(C)OC(=O)c1cc2c(cn1)[nH]c1ccc(C#C[Si](C)(C)C)cc12 | 36 nM | 6.8 nM | 30 nM | 108 nM | – | –
O=C(Oc1cc(F)c(F)cc1F)c1cc2c(cn1)[nH]c1ccccc12 | 44.8 nM | 22 nM | 177 nM | 422 nM | – | –
CC(C)CCOc1cc2c3ccccc3nc-2c[nH]1 | 3000 nM | – | 3000 nM | 3000 nM | – | 10000 nM
O=C(OCC(F)(F)F)c1cc2c(cn1)[nH]c1ccc(I)cc12 | 47 nM | 12 nM | 39 nM | 122 nM | – | –
CCC(C)OC(=O)c1cc2c(cn1)[nH]c1ccccc12 (single isomer, unassigned) | – | – | – | – | Not Active | –
O=C(OCC(F)(F)F)c1cc2c(cn1)[nH]c1ccc(-c3cccs3)cc12 | 72 nM | 9.2 nM | 13 nM | 449 nM | – | –
CC(C)(C)OC(=O)c1cc2c3cc(I)ccc3n(C(=O)OC(C)(C)C)c2cn1 | – | – | – | 1850 nM | – | –
CCCCOc1cc2c(cn1)[nH]c1ccccc12 | – | – | – | – | – | 1000 nM
O=C(OCC(F)(F)F)c1cc2c(cn1)[nH]c1ccc(-c3ccco3)cc12 | 117 nM | 26 nM | 143 nM | 127 nM | – | –
CC(C)(C)OC(=O)c1cc2c(cn1)[nH]c1ccc(F)cc12 | 14.7 nM | 1.62 nM | 4.54 nM | 4.61 nM | – | –
C#Cc1ccc2[nH]c3cnc(C(=O)OC(C)(C)C)cc3c2c1 | – | 0.972 nM | – | – | – | 1980 nM
O=C(OCC(Cl)(Cl)Cl)c1cc2c(cn1)[nH]c1ccccc12 | 43 nM | 10 nM | 33 nM | 189 nM | – | –
CC(C)(C)OC(=O)c1cc2c(cn1)[nH]c1ccc(C#CC#Cc3ccc4[nH]c5cnc(C(=O)OC(C)(C)C)cc5c4c3)cc12 | 3940 nM | 120 nM | 1060 nM | – | – | –
CC(C)(C)OC(=O)c1cc2c(cn1)[nH]c1ccc(-c3cccs3)cc12 | 314 nM | 37 nM | 166 nM | 2860 nM | Not Active | –
CC(C)(C)OC(=O)c1cc2c(cn1)[nH]c1ccc(C(C)(C)C)cc12 | 24.5 nM | 2.78 nM | 8.93 nM | 7.49 nM | – | –
